Patent US10577367B2, “IRAK4 inhibiting agents” (BIOGEN MA INC., priority 2014, dated 2020)

biological target: IRAK4 (Homo sapiens (Human), UniProt Q9NWZ3); test: IRAK-4 AlphaScreen biochemical kinase assay; details: 1 nM IRAK4, 1 mM ATP, 3.5 h at RT
Experimental: The biochemical assay is in a AlphaScreen format. The kinase reaction is based on the IRAK-4 phosphorylation of a biotin labeled peptide. The phosphopeptide is incubated with anti-phosphothreonine antibody as well as streptavidin- and protein A-coated beads. Binding of the protein-A coated beads to the antibody and the streptavidin beads to the peptide, leads to an energy transfer from one bead to the other, ultimately producing a luminescent/fluorescent signal.
The compounds described herein were tested for in the above biochemical assay.

IRAK4, sequence (Q9NWZ3 whole entry, species assumed): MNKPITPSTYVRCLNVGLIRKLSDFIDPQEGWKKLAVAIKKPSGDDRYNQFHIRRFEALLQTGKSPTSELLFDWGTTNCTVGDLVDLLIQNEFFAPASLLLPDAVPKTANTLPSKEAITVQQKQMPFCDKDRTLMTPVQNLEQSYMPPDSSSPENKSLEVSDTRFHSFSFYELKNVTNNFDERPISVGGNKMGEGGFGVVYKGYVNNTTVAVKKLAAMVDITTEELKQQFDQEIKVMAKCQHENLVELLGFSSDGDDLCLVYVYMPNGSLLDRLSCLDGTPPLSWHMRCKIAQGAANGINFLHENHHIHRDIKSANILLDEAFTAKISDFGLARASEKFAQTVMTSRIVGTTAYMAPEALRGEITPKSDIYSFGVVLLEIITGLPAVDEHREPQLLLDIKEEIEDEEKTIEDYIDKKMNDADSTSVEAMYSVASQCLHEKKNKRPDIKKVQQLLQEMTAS

`CCC[C@H](N)c1cccc(-c2cc(C3=CCN(C)CC3)c3cnn(-c4cccc(CO)n4)c3c2)n1` [Example 423, (S)-(6-(6-(6-(1-aminobutyl)pyridin-2-yl)-4-(1-methyl-1,2,3,6-tetrahydropyridin-4-yl)-1H-indazol-1-yl)pyridin-2-yl)methanol] and `CCC[C@H](N)c1cccc(-c2cc(N3CCCCC3)c3cnn(-c4cccc(CO)n4)c3c2)n1` [Example 324, (S)-(6-(6-(6-(1-aminobutyl)pyridin-2-yl)-4-(piperidin-1-yl)-1H-indazol-1-yl)pyridin-2-yl)methanol] cannot be ordered by IC50: less than 100 nM for the first, less than 100 nM for the second.

`O=C1CCCc2ccc(-c3ccc4cnn(-c5cccc(C(F)(F)F)n5)c4c3)nc21` [Example 212, 2-(1-(6-(trifluoromethyl)pyridin-2-yl)-1H-indazol-6-yl)-6,7-dihydroquinolin-8(5H)-one] and `N#Cc1cc(-c2cncc(NC(=O)C(F)(F)F)c2)cc2c1cnn2-c1cccc(C(F)(F)F)n1` [Example 208, N-(5-(4-cyano-1-(6-(trifluoromethyl)pyridin-2-yl)-1H-indazol-6-yl)pyridin-3-yl)-2,2,2-trifluoroacetamide] cannot be ordered by IC50: greater than 10000 nM for the first, greater than 10000 nM for the second.

`CCC(N)c1cccc(-c2ccc3cnc(-c4cccc(C)n4)n3c2)n1` (stereo not drawn) [Example 275, 1-(6-(3-(6-methylpyridin-2-yl)imidazo[1,5-a]pyridin-6-yl)pyridin-2-yl)propan-1-amine] and `CCCC(N)c1cccc(-c2ccc3cnc(-c4cccc(C)n4)n3c2)n1` (stereo not drawn) [Example 276, 1-(6-(3-(6-methylpyridin-2-yl)imidazo[1,5-a]pyridin-6-yl)pyridin-2-yl)butan-1-amine] cannot be ordered by IC50: less than 100 nM for the first, less than 100 nM for the second.
